Laboratory results from US20110184188A1, “Insecticidal Benzenedicarboxamide Derivative” (priority 2008, published 2011).

Assay: logP(acid) by reverse phase (C18) chromatography at pH 2.3
Assay type: physicochemical
[1] = reverse phase (C18) chromatography at pH 2.3
[2] = reverse phase (C18) chromatography, pH 2.3

SMILES	logP (acid) [2]	further results
Cc1nc(Cn2cc(C(F)(F)C(F)(F)F)c(C(F)(F)C(F)(F)F)n2)ccc1NC(=O)c1cccc(Br)c1C(=O)N[C@@H](C)C[S+](C)[O-] (stereo partly shown) [13-138]		logP (acid) [1]: logP (acid) 3.03
Cc1nc(Cn2nc(C(F)(F)C(F)(F)C(F)(F)F)cc2C(F)(F)F)ccc1NC(=O)c1cccc(Br)c1C(=O)N[C@@H](C)CS(C)(=O)=O [13-139]		logP (acid) [1]: logP (acid) 3.56
Cc1nc(Cn2cc(C(F)(F)C(F)(F)F)c(C(F)(F)C(F)(F)F)n2)ccc1NC(=O)c1cccc(Br)c1C(=O)N[C@@H](C)CS(C)(=O)=O [13-141]		logP (acid) [1]: logP (acid) 3.52
CSC[C@H](C)NC(=O)c1c(I)cccc1C(=O)Nc1ccc(Cn2nc(C(F)F)c(Cl)c2C(F)F)nc1C [13-145]		logP (acid) [1]: logP (acid) 3.34
CSC[C@H](C)NC(=O)c1c(I)cccc1C(=O)Nc1ccc(Cn2cc(C(F)(F)C(F)(F)F)c(C(F)(F)C(F)(F)F)n2)nc1C [13-156]		logP (acid) [1]: logP (acid) 4.46
CSC[C@H](C)NC(=O)c1c(I)cccc1C(=O)Nc1ccc(Cn2nc(C(F)(F)C(F)(F)F)cc2C(F)(F)F)nc1C [13-157]		logP (acid) [1]: logP (acid) 4.39
CSC[C@H](C)NC(=O)c1c(Cl)cccc1C(=O)Nc1cnc(Cn2nc(C(F)(F)F)cc2C(F)(F)F)cc1C [13-175]		logP (acid) [1]: logP (acid) 3.52
CSC[C@H](C)NC(=O)c1c(Br)cccc1C(=O)Nc1cnc(Cn2nc(C(F)(F)F)cc2C(F)(F)F)cc1C [13-178]		logP (acid) [1]: logP (acid) 3.59
CSC[C@H](C)NC(=O)c1c(I)cccc1C(=O)Nc1cnc(Cn2nc(C(F)(F)F)cc2C(F)(F)F)cc1C [13-181]		logP (acid) [1]: logP (acid) 3.67
Cc1nc(Cn2nc(C(F)(F)C(F)(F)F)cc2C(F)(F)F)ccc1NC(=O)c1cccc(Cl)c1C(=O)N[C@@H](C)CS(C)(=O)=O [13-186]		logP (acid) [1]: logP (acid) 3.12
Cc1nc(Cn2nc(C(F)(F)C(F)(F)F)cc2C(F)(F)F)ccc1NC(=O)c1cccc(Br)c1C(=O)N[C@@H](C)CS(C)(=O)=O [13-187]		logP (acid) [1]: logP (acid) 3.19
Cc1nc(Cn2nc(C(F)(F)C(F)(F)F)cc2C(F)(F)F)ccc1NC(=O)c1cccc(I)c1C(=O)N[C@@H](C)CS(C)(=O)=O [13-189]		logP (acid) [1]: logP (acid) 3.27
Cc1cc(Cn2nc(C(F)(F)F)cc2C(F)(F)F)ccc1NC(=O)c1cccc(Cl)c1C(=O)NC(C)CN(C)C (stereo not shown) [13-191]	logP (acid) 1.81	
Cc1cc(Cn2nc(C(F)(F)F)cc2C(F)(F)F)ccc1NC(=O)c1c(Cl)cccc1C(=O)NCC#N [13-198]	logP (acid) 3.32	
CSC[C@H](C)NC(=O)c1c(Cl)cccc1C(=O)Nc1ccc(Cn2nc(C(F)(F)F)cc2N)cc1C [13-200]	logP (acid) 2.31	
CCOC(=O)c1cn(Cc2ccc(NC(=O)c3cccc(Cl)c3C(=O)N[C@@H](C)CSC)c(C)c2)nc1C(F)(F)F [13-202]	logP (acid) 3.43	
CSC[C@H](C)NC(=O)c1c(Cl)cccc1C(=O)Nc1ccc(Cn2cc(C(=O)C(F)(F)C(F)(F)F)c(C(F)(F)C(F)(F)F)n2)cc1C [13-205]	logP (acid) 4.46	
CSC[C@H](C)NC(=O)c1c(Cl)cccc1C(=O)Nc1ccc(Cn2cc(C(=O)N(C)C)c(C(F)(F)F)n2)cc1C [13-207]	logP (acid) 2.56	
CSC[C@H](C)NC(=O)c1c(Cl)cccc1C(=O)Nc1ccc(Cn2cc(C(=O)NC(C)C(F)(F)F)c(C(F)(F)F)n2)cc1C (stereo partly shown) [13-208]	logP (acid) 3.25	
CSC[C@H](C)NC(=O)c1c(Cl)cccc1C(=O)Nc1ccc(Cn2cc(C(=O)NC(C)C)c(C(F)(F)F)n2)cc1C [13-209]	logP (acid) 2.87	

SMILES	logP (acid) [2]	further results
CSC[C@H](C)NC(=O)c1c(Cl)cccc1C(=O)Nc1ccc(Cn2cc(C(=O)NCC(F)(F)F)c(C(F)(F)F)n2)cc1C [13-210]	logP (acid) 3.05	
CSC[C@H](C)NC(=O)c1c(Cl)cccc1C(=O)Nc1ccc(Cn2cc(C(=O)Nc3cc(C(F)(F)F)cc(C(F)(F)F)c3)c(C(F)(F)F)n2)cc1C [13-211]	logP (acid) 4.55	
CSC[C@H](C)NC(=O)c1c(Cl)cccc1C(=O)Nc1ccc(Cn2nc(C(F)(F)C(F)(F)F)cc2C(=O)C(F)(F)F)cc1C [13-220]	logP (acid) 3.52	
CSC[C@H](C)NC(=O)c1c(Cl)cccc1C(=O)Nc1ccc(Nc2c(C(F)(F)F)c(C(F)(F)C(F)(F)F)nn2C)nc1C [13-226]	logP (acid) 3.64	
CSC[C@H](C)NC(=O)c1c(Cl)cccc1C(=O)Nc1ccc(Nc2c(SC(F)(F)F)c(C(F)(F)F)nn2-c2c(Cl)cc(C(F)(F)F)cc2Cl)nc1C [13-227]	logP (acid) 5.09	
CSC[C@H](C)NC(=O)c1c(Cl)cccc1C(=O)Nc1ccc(Oc2cc(C(F)(F)F)n(C)n2)nc1C [13-228]	logP (acid) 2.98	
CSC[C@H](C)NC(=O)c1c(Cl)cccc1C(=O)Nc1ccc(C(=O)c2cc(C(F)(F)C(F)(F)F)n[nH]2)cc1C [13-229]	logP (acid) 3.4	
CSC[C@H](C)NC(=O)c1c(Cl)cccc1C(=O)Nc1ccc(Cc2cc(C(F)(F)C(F)(F)F)n[nH]2)cc1C [13-230]	logP (acid) 3.29	
CSC[C@H](C)NC(=O)c1c(Cl)cccc1C(=O)Nc1ccc(Cn2nc(C(F)(F)F)cc2C(F)(F)F)nc1Cl [13-232]	logP (acid) 3.97	
CSC[C@H](C)NC(=O)c1cc(Cl)c(Cl)cc1C(=O)Nc1ccc(Cn2nc(C(F)(F)F)cc2C(F)(F)F)nc1C [13-238]	logP (acid) 3.74	
CSC[C@H](C)NC(=O)c1c(I)cccc1C(=O)Nc1ccc(Cn2nc(C(F)(F)F)cc2C(F)(F)C(F)(F)F)nc1C [13-239]	logP (acid) 4.27	
Cc1nc(Cn2nc(C(F)(F)F)cc2C(F)(F)F)ccc1NC(=O)c1c(Cl)cccc1C(=O)NC1CCS(=O)(=O)C1 (stereo not shown) [13-276]	logP (acid) 3.28	
CCC(CC#N)NC(=O)c1c(Cl)cccc1C(=O)Nc1ccc(Cn2nc(C(F)(F)F)cc2C(F)(F)F)cc1C (stereo not shown) [13-277]	logP (acid) 3.42	
Cc1nc(Cn2nc(C(F)(F)F)cc2C(F)(F)F)ccc1NC(=O)c1c(Cl)cccc1C(=O)NC1=NN(c2ccccc2)C(=O)C1 [13-281]	logP (acid) 4.41	
Cc1nc(Cn2nc(C(F)(F)F)cc2C(F)(F)F)ccc1NC(=O)c1c(Cl)cccc1C(=O)NC(C)CN(C)C (stereo not shown) [13-283]	logP (acid) 2.4	
CCN(CC)CC(C)NC(=O)c1cccc(Cl)c1C(=O)Nc1ccc(Cn2nc(C(F)(F)F)cc2C(F)(F)F)nc1C (stereo not shown) [13-285]	logP (acid) 2.53	
CSC[C@H](C)NC(=O)c1c(C(=O)Nc2ccc(Cn3nc(C(F)(F)F)cc3C(F)(F)F)nc2C)cccc1S(C)(=O)=O [13-286]	logP (acid) 3.21	
Cc1nc(Cn2nc(C(F)(F)F)cc2C(F)(F)F)ccc1NC(=O)c1cccc(S(=O)(=O)N(C)C)c1C(=O)N[C@@H](C)CS(C)(=O)=O [13-289]	logP (acid) 2.75	
CSC[C@H](C)NC(=O)c1c(C(=O)Nc2ccc(Cn3cc(C(F)(F)C(F)(F)F)c(C(F)(F)C(F)(F)F)n3)nc2C)cccc1S(C)(=O)=O [13-290]	logP (acid) 3.80	
CSC[C@H](C)NC(=O)c1c(SC)cccc1C(=O)Nc1ccc(Cn2nc(C(F)(F)C(F)(F)F)c(C(F)(F)F)c2F)cc1C [13-308]	logP (acid) 4.43	

SMILES	logP (acid) [2]	further results
CSC[C@H](C)NC(=O)c1c(SC)cccc1C(=O)Nc1ccc(Cn2nc(C(F)(F)C(F)(F)F)cc2C(F)(F)F)cc1C [13-310]	logP (acid) 4.74	
CSC[C@H](C)NC(=O)c1c(C(=O)Nc2ccc(Cn3nc(C(F)(F)C(F)(F)F)cc3C(F)(F)F)cc2C)cccc1S(C)(=O)=O [13-311]	logP (acid) 4.20	
CSC[C@H](C)NC(=O)c1c(SC)cccc1C(=O)Nc1ccc(Cn2nc(C(F)(F)C(F)(F)F)cc2C(=O)C(F)(F)F)cc1C [13-325]	logP (acid) 3.50	
CSC[C@H](C)NC(=O)c1c(SC)cccc1C(=O)Nc1ccc(Cn2nc(C(F)(F)C(F)(F)F)cc2C(F)(F)C(F)(F)F)nc1C [13-342]	logP (acid) 4.45	
CSc1cccc(C(=O)Nc2ccc(Cn3nc(C(F)(F)C(F)(F)F)cc3C(F)(F)F)nc2C)c1C(=O)N[C@@H](C)C[S+](C)[O-] (stereo partly shown) [13-343]	logP (acid) 2.78	
CCS(=O)(=O)c1cccc(C(=O)Nc2ccc(Cn3nc(C(F)(F)F)cc3C(F)(F)F)cc2C)c1C(=O)N[C@@H](C)CSC [13-346]	logP (acid) 3.74	
Cc1cc(Cn2nc(C(F)(F)F)cc2C(F)(F)F)ccc1NC(=O)c1cccc(S(=O)(=O)N(C)C)c1C(=O)N[C@@H](C)CS(C)(=O)=O [13-349]	logP (acid) 3.07	
CSC[C@H](C)NC(=O)c1c(Cl)cccc1C(=O)Nc1ccc(N(C)c2c(C(F)(F)F)c(C(F)(F)C(F)(F)F)nn2C)nc1C [13-353]	logP (acid) 4.19	
Cc1nc(N(C)c2c(C(F)(F)F)c(C(F)(F)C(F)(F)F)nn2C)ccc1NC(=O)c1cccc(Cl)c1C(=O)N[C@@H](C)C[S+](C)[O-] (stereo partly shown) [13-354]	logP (acid) 2.91	
Cc1nc(Cn2c(C(F)(F)F)nc(Cl)c2Cl)ccc1NC(=O)c1cccc(Cl)c1C(=O)N[C@@H](C)C[S+](C)[O-] (stereo partly shown) [13-363]	logP (acid) 2.17	
Cc1nc(Cn2c(C(F)(F)F)nc(Cl)c2Cl)ccc1NC(=O)c1cccc(Cl)c1C(=O)N[C@@H](C)CS(C)(=O)=O [13-364]	logP (acid) 2.59	
CSC[C@H](C)NC(=O)c1c(Cl)cccc1C(=O)Nc1ccc(Cn2c(C(F)(F)F)nc(Cl)c2Cl)nc1C [13-502]		logP (acid) [1]: 3.50
CSCC(C)NC(=O)c1c(Cl)cccc1C(=O)Nc1ccc(Cn2nc(C(F)(F)C(F)F)nc2C(F)(F)C(F)F)nc1C (stereo not shown) [14-31]		Physical property logP (acid) [1]: logP (acid) 3.33
CCSc1nc(C(F)(F)F)nn1Cc1ccc(NC(=O)c2cccc(Cl)c2C(=O)NC(C)CSC)c(C)c1 (stereo not shown) [14-38]		Physical property logP (acid) [1]: logP (acid) 4.13
CSCC(C)NC(=O)c1c(Cl)cccc1C(=O)Nc1ccc(Cn2nc(C(F)(F)F)nc2SC(C)C)cc1C (stereo not shown) [14-39]		Physical property logP (acid) [1]: logP (acid) 4.13
CCCCCSc1nc(C(F)(F)F)nn1Cc1ccc(NC(=O)c2cccc(Cl)c2C(=O)NC(C)CSC)c(C)c1 (stereo not shown) [14-40]		Physical property logP (acid) [1]: logP (acid) 4.91
Cc1nc(Cn2nc(C(F)(F)C(F)(F)F)nc2C(F)(F)F)ccc1NC(=O)c1cccc(Cl)c1C(=O)NC(C)C[S+](C)[O-] (stereo not shown) [14-60]		Physical property logP (acid) [1]: logP (acid) 2.59
CSC[C@H](C)NC(=O)c1c(Cl)cccc1C(=O)Nc1cnc(Cn2nc(C(F)(F)F)nc2C(F)(F)F)cc1C [14-268]	logP (acid) 3.26	
